Laboratory results as given in patent US20250333775A1, “DIAGNOSTIC TEST AND THERAPY FOR PATIENTS WITH AUTO-BREWERY SYNDROME” (The Regents of the University of California, priority 2024, published 2025).

Tests used:
[1] = system: fecal microbiota from patients with clinically documented Auto-brewery Syndrome; experiment: Bioreactor cultures of fecal microbiota, ethanol production (ABS patients); format: cell-based, human; settings: 24 hours
Description: (§1) 100 mg of stool collected from patients during flare and remission and from their household partners was cultured in bioreactor cultures which consisted of 10 mL of Luria Broth (LB) media supplemented with 2 mM glucose and 2 mM cysteine in anaerobic conditions using hungate tubes. This concentration of glucose was chosen to emulate physiologic glucose concentrations in the intestine. Bioreactor cultures were untreated or treated with 0.05% dimethyl sulfoxide (DMSO, vehicle), 10 μg/mL amphotericin B, or 100 μg/mL chloramphenicol. To emulate supraphysiologic concentrations of glucose in the GI tract, patient microbiota was also cultured in LB media supplemented with 100 mM and 200 mM of glucose anaerobically using hungate tubes. Samples were collected at 0, 6, and 24 hours of culturing and ethanol concentration was assessed by high-performance liquid chromatography (HPLC) using a 1260 Infinity IILC system (Agilent, Santa Clara, CA, USA) equipped with an HPX-87H (Biorad, Hercules, CA, USA) or by using an enzyme-based kit (Abcam, in less than 20% of samples, low limit of detection 50 ng/dL).

[2] = system: fecal microbiota from household partners; experiment: Bioreactor cultures of fecal microbiota, ethanol production (household partners); format: cell-based, human; settings: household partner samples, 24 hours; 10 μg/mL amphotericin B or 100 μg/mL chloramphenicol
Description: as §1

[3] = samples from ABS patients, compared with DMSO vehicle control, 100 μg/mL chloramphenicol or 10 μg/mL amphotericin B

SMILES	ethanol production in bioreactor cultures [1, 3]	ethanol production in bioreactor cultures ([1]; three ABS patient samples during a flare, 10 μg/mL amphotericin B)	ethanol production in bioreactor cultures [2]
C[C@@H]1[C@H](O)[C@@H](C)/C=C/C=C/C=C/C=C/C=C/C=C/C=C/[C@H](O[C@@H]2O[C@H](C)[C@@H](O)[C@H](N)[C@@H]2O)C[C@@H]2O[C@](O)(C[C@@H](O)C[C@@H](O)[C@H](O)CC[C@@H](O)C[C@@H](O)CC(=O)O[C@H]1C)C[C@H](O)[C@H]2C(=O)O [amphotericin B]	did not have a significant effect	partially reduced	No significant difference
O=C(N[C@H](CO)[C@H](O)c1ccc([N+](=O)[O-])cc1)C(Cl)Cl [chloramphenicol]	significantly decreased		No significant difference
